PubChem BioAssay AID1963430 (Molecular Pharmacology Branch, DTP, NCI, 2024)
Where “and” joins values, the source holds several entries; their conditions need not be identical. Equal entries are not always repeated.

Tested on: 521955-158-R2-J5-PDC complex spheroid growth, % test/control
Assay: Anticancer human tumor 521955-158-R2-J5-PDC patient-derived pancreatic carcinoma cell line growth inhibition [Asc]
Settings: for viability, T/C: stronger effect = lower value; active = viability on the fitted dose curve at most 10% of control; inactive = the rest
Protocol: Multicellular complex tumor spheroid response to apoptosis pathway targeting inhibitors Alrizomadlin, Pelcitoclax, and Dasminapant in combination with a variety of drugs and investigational agents in selected tumor cell lines
The MDM2 inhibitor alrizomadlin, the Bcl-2/Bcl-xL inhibitor pelcitoclax, and the IAPs inhibitor dasminapant were evaluated both individually and in combination with standard of care and investigational anticancer small molecules within a complex spheroid model of solid tumors. . Complex spheroids include a stromal component modeled by human endothelial cells (HUVEC) and fibroblasts modeled by human mesenchymal stem cells (MSCs). The concentration ranges selected for each drug and investigational agent were based upon clinically achievable concentrations if the clinical Cmax of the agent was known.
Compounds. The drugs and investigational agents: alrizomadlin (APG-115; NSC831270), pelcitoclax (APG-1252; NSC835773), dasminapant (APG-1387;NSC834197), TAK-243 (NSC785004), copanlisib (NSC809693), olaparib (NSC753686), talazoparib (NSC767125), cobimetinib (NSC 768068), eltanexor (KPT-8602, NSC 794443), abemaciclib (NSC 768073), sotorasib (NSC818433), adagrasib (NSC 831453), MRTX-1133 (NSC 836407), Iadademestat (ORY1001, NSC 806812), and RMC-4630 (NSC839698), were obtained from the NCI Developmental Therapeutics Program Chemical Repository. The FDA-approved anticancer drug set is available from the Developmental Therapeutics Program at https://dtp.cancer.gov/organization/dscb/obtaining/available plates.htm. […] The stock solutions were prepared in dimethyl sulfoxide (DMSO, Sigma-Aldrich, St. Louis, MO, cat. D2650) at 800-fold the tested concentration and stored at -70 degrees C prior to their use. All drugs and investigational agents were tested over a range starting from a high concentration at or near the clinical Cmax and decreasing in half-log increments. If the clinical Cmax for an agent had not been determined, the highest concentration tested was 10 microM.
The patient-derived cancer (PDC) cell lines include five colon adenocarcinomas: 186277-243-T-J2-PDC, 616215-338-R-J1-PDC, 439559-082-T-J2-PDC, 463943-066-T-J2-PDC, and 519858-162-T-J1-PDC; three pancreatic carcinomas: 323965-272-R-J2-PDC, 521955-158-R6-J3-PDC, and 521955-158-R2-J5-PDC; two uterine sarcomas: 327498-152-R-J2-PDC and 993429-296-R-J1-PDC; two rhabdomyosarcomas: 755483-174-R-J1-PDC and 772245-204-R-J1-PDC; two soft tissue sarcomas: 126254-015-R-J1-PDC and 494315-158-R-J1-PDC; two malignant fibrous histiocytomas: 317291-083-R-J1-PDC and 596521-263-R-J1-PDC; two breast carcinomas: 171881-019-R-J1-PDC and 885512-296-R-J2-PDC; and one ovarian carcinoma: 6556581-035-R-J-PDC were obtained from the NCI PDMR, (https://pdmr.cancer.gov). The established cell lines HSSY-2 synovial sarcoma (RRID:CVCL 8719), SYO-1 synovial sarcoma (RRID:CVCL_7146), MPNST malignant peripheral neural sheath tumor were obtained from the Sloan Kettering Institute. The following established cell lines were purchased from the American Type Culture Collection (ATCC, Manassas, VA), Sor the received from the NCI repository:, PANC-1 pancreatic carcinoma (CRL-1469, RRID:CVCL_0480), OVCAR-5 ovarian carcinoma (RRID:CVCL_1628), OVCAR-8 ovarian carcinoma (RRID:CVCL_1629), , MCF-7 breast carcinoma (CRL-12584, RRID:CVCL_0031), MDA-MB-231 breast carcinoma (CRL-12532, RRID:CVCL_0062), NCI-H1876 small cell lung carcinoma (CRL-5902, RRID:CVCL_1503), NCI-H510A small cell lung carcinoma (HTB-184, RRID:CVCL_1565), NCI-H1417 (CRL-5869, RRID:CVCL_1469), and NCI-H196 small cell lung carcinoma (CRL-5823, RRID:CVCL_1509). Dr. Peter Houghton (Greehey Children's Cancer Research Institute, University of Texas Health Science Center, San Antonio, TX) provided Rh-18 rhabdomyosarcoma (RRID:CVCL_1659). Pooled donor human umbilical vein endothelial cells (HUVEC, Lonza, cat. CC-2519) and human mesenchymal stem cells (hMSC, Lonza, cat. PT-2501) were purchased from Lonza (Walkersville, MD).
Cell Culture. […]
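Also: spheroids exposed to agents for 7 days before readout.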
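For viability, T/C in this document: 100% = DMSO vehicle control viability.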

C#Cc1c(F)ccc2cc(O)cc(-c3ncc4c(N5CC6CCC(C5)N6)nc(OCC56CCCN5CC(F)C6)nc4c3F)c12 (configuration not stated)
inactive: viability, T/C (compound 0.0316 µM) 23.2% and 40.7% and 50.5% | viability, T/C (compound 0.1 µM) 28.2% and 48.4% and 47.1% | viability, T/C (compound 0.316 µM) 22.3% and 37.1% and 31.9% | viability, T/C (compound 1 µM) 20.6% and 36.3% and 36.4% | viability, T/C (compound 3.16 µM) 24.6% and 37.5% and 33.1% | viability, T/C (compound 10 µM) 21.9% and 34.4% and 44.3%
< 0.0316 µM and 0.0359 µM: IC50 (curve of compound)

O=C(c1ccc(F)c(F)c1Nc1ccc(I)cc1F)N1CC(O)([C@@H]2CCCCN2)C1 + Cc1c(S(C)(=O)=O)c(-c2cc(F)cc(N3CCN(c4ccc(NS(=O)(=O)c5ccc(NC(CCN6CCC(C(=O)OCCCP(=O)(O)O)CC6)CSc6ccccc6)c(S(=O)(=O)C(F)(F)F)c5)cc4)CC3)c2)c(-c2ccc(Cl)cc2)n1C(C)C
inactive: viability, T/C (second compound 0.1 µM, first compound 0.00316 µM) 64% | viability, T/C (second compound 0.1 µM, first compound 0.01 µM) 60.4% | viability, T/C (second compound 0.1 µM, first compound 0.0316 µM) 69.8% | viability, T/C (second compound 0.1 µM, first compound 0.1 µM) 45.5% | viability, T/C (second compound 0.1 µM, first compound 0.316 µM) 34.5% | viability, T/C (second compound 0.1 µM, first compound 1 µM) 19.9% | viability, T/C (second compound 0.316 µM, first compound 0.00316 µM) 66.9% | viability, T/C (second compound 0.316 µM, first compound 0.01 µM) 44.6% | viability, T/C (second compound 0.316 µM, first compound 0.0316 µM) 56.5% | viability, T/C (second compound 0.316 µM, first compound 0.1 µM) 37.8% | viability, T/C (second compound 0.316 µM, first compound 0.316 µM) 23.2% | viability, T/C (second compound 0.316 µM, first compound 1 µM) 13% | viability, T/C (second compound 1 µM, first compound 0.00316 µM) 82% | viability, T/C (second compound 1 µM, first compound 0.01 µM) 64.6% | viability, T/C (second compound 1 µM, first compound 0.0316 µM) 49.1% | viability, T/C (second compound 1 µM, first compound 0.1 µM) 37.6% | viability, T/C (second compound 1 µM, first compound 0.316 µM) 18.1% | viability, T/C (second compound 3.16 µM, first compound 0.00316 µM) 61.2% | viability, T/C (second compound 3.16 µM, first compound 0.01 µM) 75.1% | viability, T/C (second compound 3.16 µM, first compound 0.0316 µM) 50.8% | viability, T/C (second compound 3.16 µM, first compound 0.1 µM) 31.6% | viability, T/C (second compound 3.16 µM, first compound 0.316 µM) 9.65% | viability, T/C (second compound 10 µM, first compound 0.00316 µM) 169% | viability, T/C (second compound 10 µM, first compound 0.01 µM) 242% | viability, T/C (second compound 10 µM, first compound 0.0316 µM) 135% | viability, T/C (second compound 10 µM, first compound 0.1 µM) 36.1% | viability, T/C (second compound 10 µM, first compound 0.316 µM) 10.6% | viability, T/C (second compound 10 µM, first compound 1 µM) 2.76%
0.0399 µM: IC50 (curve of first compound, second compound 3.16 µM)
0.103 µM: IC50 (curve of first compound, second compound 0.1 µM)
0.0788 µM: IC50 (curve of first compound, second compound 10 µM)
0.0322 µM: IC50 (curve of first compound, second compound 1 µM)
active: viability, T/C (second compound 1 µM, first compound 1 µM) 5.29% | viability, T/C (second compound 3.16 µM, first compound 1 µM) 5.32%
0.0213 µM: IC50 (curve of first compound, second compound 0.316 µM)
